Drawing on PubChem BioAssay (NCI), this text covers TGI and GI50 for eight compounds.

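Protocol summary: plate cells (96-well), add compound at 5 concentrations, incubate 48 h, interpolate endpoints linearly. GI50 is the concentration that inhibits growth by half. The concentration for full growth arrest is given as TGI.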

Experiment in all cases: DTP human tumour cell line panel, 48 h
In assay [1] the test system is CAKI-1 renal.
The subject of assay [2] is PC-3 prostate.
The test system of assay [3] is MDA-MB-435.
Assay [4] concerns COLO 205 colon.
Assay [5] relates to SF-539 CNS.
Assay [6] deals with SK-MEL-2 melanoma.
The subject of assay [7] is TK-10 renal.
The subject of assay [8] is HOP-92 NSCLC.
The test system of assay [9] is HT29 colon.
Assay [10] deals with SK-MEL-28 melanoma.

Broadly, the TGI is the concentration giving total growth inhibition. With `CCc1cccc(C(C)C)c1NC(=O)C(=O)C1C(=O)Nc2ccccc2S1=O` (stereo not given), the TGI in assay [1], in [2], in assay [3], in assay [4], in assay [5] and in assay [6] was greater than 100 µM each time. The TGI in [7], in assay [8], in assay [9] and in assay [10] was greater than 100 µM in each case.
In the case of `CN(Cc1ccccc1)Cn1ccnc1`, the TGI in assay [1] is greater than 100 µM; in assay [2], greater than 100 µM; in assay [3], greater than 100 µM; in assay [4] it was greater than 86.7 µM; in [5], greater than 100 µM; in [6], greater than 100 µM. The total growth inhibition concentration (TGI) was greater than 100 µM in assay [7], greater than 100 µM in assay [8], greater than 100 µM in assay [9] and greater than 68 µM in assay [10].
As a reminder, the GI50 is the concentration giving 50% growth inhibition. As to `NS(=O)(=O)OC[C@H]1C[C@@H](Nc2ccnc3cc(-c4cccc(SC(F)(F)F)c4)nn23)[C@H](O)[C@@H]1O`, the GI50 in assay [1] was 0.181 µM; in [2], 0.0378 µM; in assay [3] it was 0.035 µM; in assay [4], 0.0229 µM; in [5] it was 0.0143 µM; in assay [6] it was 0.0316 µM. The GI50 in assay [7] is 0.126 µM; in assay [8], 0.0308 µM; in [9], 0.249 µM; in [10], 0.0189 µM. Besides, the TGI in assay [1] is 0.477 µM; in assay [2] it was 0.367 µM; in assay [3], 0.144 µM; in assay [4], 0.0525 µM; in assay [5], 0.037 µM; in assay [6] it was 0.118 µM. In addition, the TGI in [7] was found to be 0.336 µM; in assay [8] it was 0.0788 µM; in assay [9] it was 0.552 µM; in assay [10], 0.065 µM.
Consider `O=c1c2c(nc3n1CCS3)[nH]c1cc([N+](=O)[O-])ccc12`, for which the GI50 was greater than 100 µM in assay [1]; greater than 100 µM in assay [2]; greater than 100 µM in assay [3]; 41.4 µM in assay [4]; greater than 100 µM in assay [5]; greater than 100 µM in [6]. In addition, the GI50 in [7] was greater than 100 µM; in [8], 67.9 µM; in [9], greater than 100 µM; in assay [10] it was greater than 100 µM. Also, the TGI in assay [1], in assay [2], in assay [3], in [4], in assay [5] and in assay [6] was greater than 100 µM throughout. Also, the TGI in assay [7], in assay [8], in assay [9] and in assay [10] was greater than 100 µM each time.
Regarding `Cc1nc([N+](=O)[O-])cn1-c1nc2ccccn2c1[N+](=O)[O-]`, the TGI in assay [1], in [2], in [3], in [4], in assay [5] and in assay [6] was greater than 100 µM each time. For the same compound, the concentration for total growth inhibition (TGI) in [7], in [8], in [9] and in assay [10] was greater than 100 µM each time.
Regarding `O=C1NC(=C(Cl)Cl)/C(=N/S(=O)(=O)N2CCCCC2)N1`, the GI50 in assay [1] was 1.77 µM; in [2], 3.05 µM; in assay [3], 1.98 µM; in [4], 2.01 µM; in assay [5], 2.2 µM; in assay [6], 2.92 µM. Also, the GI50 is 4.82 µM in assay [7], 1.75 µM in assay [8], 1.99 µM in assay [9] and 1.92 µM in [10]. In addition, the TGI came to 3.26 µM in assay [1]; 10.5 µM in assay [2]; 4.21 µM in assay [3]; 3.88 µM in assay [4]; 5.55 µM in [5]; 7.72 µM in assay [6]. Also, the TGI was greater than 100 µM in assay [7], 3.33 µM in [8], 3.98 µM in [9] and 3.56 µM in [10].
Consider `COc1ccc(/C=C\c2cc(OC)c(OC)c(OC)c2)cc1OCC(=O)Nc1nc2ccc(F)cc2s1`, for which the GI50 in assay [1] is 2.78 µM; in assay [2], 6.74 µM; in assay [3] it was 0.335 µM; in assay [4] it was 7.78 µM; in assay [5], 4.51 µM; in assay [6] it was 8.46 µM. Besides, the GI50 in [7] is 9.89 µM; in assay [8], 5.73 µM; in assay [9], 9.63 µM; in assay [10], greater than 100 µM. Besides, the TGI in assay [1], in assay [2], in assay [3], in assay [4], in [5] and in assay [6] was greater than 100 µM each time. Further, the TGI in [7], in assay [8], in assay [9] and in [10] was greater than 100 µM throughout.
For the compound `COc1ccc(C(=O)C(CN(C)C)CN(C)C)cc1`, the GI50 is 1.89 µM in assay [1]; 13.2 µM in [2]; 2.84 µM in [3]; 1.11 µM in [4]; 7.6 µM in [5]; 16.7 µM in assay [6]. The GI50 is 2.32 µM in assay [7], 2.4 µM in [8], 2.3 µM in assay [9] and 12.6 µM in [10]. Also, the TGI in [1] is 3.56 µM; in assay [2], 29.9 µM; in assay [3], 8.58 µM; in assay [4] it was 2.32 µM; in assay [5] it was 20.7 µM; in assay [6] it was 36.8 µM. Further, the TGI is 6.98 µM in assay [7], 9.84 µM in [8], 5.77 µM in assay [9] and 27.3 µM in assay [10].
